# Values quoted from earlier work, collected in US8686040B2, “Method for treating anal pruritis and other perianal disorders” (RDD Pharma Ltd., priority 2008, dated 2014).
# What was measured:
# [1] = relative to gabapentin
compound,measurement,setting,value
CC(C)C[C@H](CN)CC(=O)O [Pregabalin],time to reach peak concentration after oral ingestion,,≤ 90 min
same,absorption when administered orally,oral,greater than 90%
same,lipid solubility,[1],higher lipid solubility than gabapentin
